# Entries after “also recorded” stand apart in the source; their conditions may differ.
# How the values were obtained:
# HT29 colon = assay: MTT growth inhibition assay, HT29; assay type: cell-based, human; conditions: MTT assay, 72 h
# MIA pancreas = assay: MTT growth inhibition assay, MIA; assay type: cell-based, human; conditions: 72 h
# A431 skin = assay: MTT growth inhibition assay, A431; assay type: cell-based, human
# [1] = test system: ADDP-resistant ovarian variant; assay: MTT growth inhibition assay, ADDP; assay type: cell-based, human; conditions: MTT assay, 72 h
# SJ-G2 glioblastoma = assay: MTT growth inhibition assay, SJ-G2; assay type: cell-based, human
# MCF-7 breast = assay: MTT growth inhibition assay, MCF-7; assay type: cell-based, human; conditions: MTT assay, 72 h
# panel of cell lines = assay: MTT growth inhibition assay, whole panel of cell lines; assay type: cell-based, human; conditions: 72 h; for GI50: average over the cell lines tested, MTT assay; for cytotoxicity: panel of cell lines, MTT
# [2] = Reduction experiments with AsA by 1H-NMR and 1D-195Pt-NMR; assay type: physicochemical; conditions: D2O, 37 °C
# Source text: Platinum(IV) complexes are reduced to their platinum(II) precursors by intracellular biological reducing agents such as AsA or GSH in tumour cells. However, the precise mechanism by which reduction occurs is not fully understood. In this paper, reduction reaction experiments were undertaken on the synthesised platinum(IV) complexes, 1–8, with the aid of ^1H-NMR and 1D-^195Pt-NMR spectroscopy. The method used for the reduction reaction experiments was adapted from the literature without modifications. A total of 10 mM PBS (~7.4 pH) was selected as media, and AsA was used as the biological reducing agent to investigate the reduction property of 1–8. Prior to the reduction reaction experiments, a control was prepared where each metal complex was dissolved with PBS in D2O. 1D-^195Pt-NMR was measured within the regions of −2800 and 400 ppm (30 min per region), at 37 °C. This was undertaken to confirm that the PBS would not interfere with the reduction process of the metal complexes. […] The approximate time points for the studied complexes at which an estimated 50% reduction had occurred, in the presence of AsA, as represented by T50%, are summarised in Table 6.
# The reduction properties of 1–8 were monitored using ^1H-NMR and 1D-^195Pt-NMR spectroscopy on a 400 MHz Bruker (Melbourne, VIC, Australia) Avance Spectrometer. A sequence of ^1H-NMR experiments was carried out for 1 h at 37 °C, followed by 1D-^195Pt-NMR within the regions of −2800 and 400 ppm. An amount of 10 mM PBS (~7.4 pH) was transferred to a vial and reduced to dryness through rotary evaporation. AsA (~1 mg) was combined with the metal complex (~5 mg) and transferred to the vial containing the dried PBS. A total of 600 µL of D2O was then added to the vial to dissolve the complex, AsA, and the PBS together.
# [3] = Lipophilicity by HPLC (log kw); assay type: physicochemical
# Source text: For lipophilicity measurements, HPLC was utilised instead of the traditional shake-flask method, as described previously. Recent studies have also reported the efficiency of HPLC in measuring the lipophilicity of compounds [79, 80]. Each complex was eluted under several isocratic ratios. A standard curve was generated to calculate the log value of the capacity factor (log k) according to Equation (1). Following Equation (2), the percentage of organic solvent (CH3CN) in the mobile phase from each isocratic run was plotted against log kw (Figure S80). Log kw is the chromatographic lipophilicity index or measure of lipophilicity of the complex, so a higher value corresponds to greater lipophilicity. Because the selected axial ligands in this study contain F, Cl, Br, and I, it was only appropriate to determine the influence of the halogens on the overall lipophilicity of the platinum(IV) complexes. […] Conversely, the least lipophilic complex was the phen derivative containing 4-FPA, 3, with a log kw of 0.25. Furthermore, for the phen derivatives, the order of increasing lipophilicity was 3 > 1 > 5 > 7, which corresponds to the order of increasing size of the halogens, F > Cl > Br > I. This pattern was also observed with the 5,6-Me2phen derivatives (4 > 2 > 6 > 8), thereby confirming that the halogens increased the order of lipophilicity accordingly based on their size.
# For lipophilicity measurements, analytical HPLC was utilised. Elution profiles were acquired on an Agilent (Melbourne, VIC, Australia) Technologies 1260 Infinity instrument equipped with a Phenomenex Onyx^TM Monolithic C18-reverse phase column (100 × 4.6 mm, 5 µm pore size) (Sydney, NSW, Australia). The mobile phase consisted of solvents, A (0.06% TFA in d.i.H2O) and B (0.06% TFA in CH3CN/d.i.H2O (90:10)). Potassium iodide was used as an external dead volume marker to determine the dead time of the column. Retention times (TR) were measured at varying isocratic ratios ranging from 30 to 36% of solvent B at 1 mL·min^−1 mL. An injection volume of 10 µL was utilised. Capacity factors were determined according to Equation (1):(1) k=(TR−T0)/T0 where k is the capacity factor, TR is the retention time of the analyte, and T0 represents the dead time. A minimum of four different mobile compositions were used for each complex to calculate k. A linear plot was generated of log k against the concentration of CH3CN in the mobile phase to determine the value of log kw expressed by Equation (2):(2) logk=Sφ+logkw where S is the slope, φ is the concentration of the CH3CN in the mobile phase, and log kw represents the capacity factor of the complex in 100% d.i.H2O. Extrapolation of this linear plot to the y-intercept indicates the log kw value.
# [4] = test system: non-tumour derived MCF10A breast line; assay: MTT growth inhibition assay, MCF10A; assay type: cell-based, human; conditions: 72 h
# A2780 ovarian = assay: MTT growth inhibition assay, A2780; assay type: cell-based, human
# HT29 colon cells = assay: ROS detection assay (DCFH-DA); assay type: cell-based, human; conditions: for ROS production 24 h / ROS production 48 h / ROS production 72 h: HT29 colon cells, treated at GI50 concentration (TBHP positive control 20 μM); for ROS production relative to the control: HT29 colon cells, 24, 48 and 72 h
# Source text: Although ROS is required for cancer cell function and progression, it can induce programmed cell death or apoptosis. […] In this study, we report the ROS activity of the studied platinum(IV) complexes, 1–8, together with the individual axial ligands (4-CPA, 4-FPA, 4-BPA, and 4-IPA) in the human cancer cell line, HT29 colon (Figure 19, Table 8, and Figure S95). The ROS potential of their platinum(II) and platinum(IV) precursors in the same cell line is also presented for comparison purposes (Table 8). […] HT29 colon cells were stained by DCFH-DA and then treated with the complexes at each specific GI50 concentration. Upon ROS production, the DCFH-DA produced dichlorodihydrofluorescein, a fluorescent product. The measured fluorescence was, therefore, proportional to the produced ROS.
# To investigate the presence of ROS in treated cells, a DCFDA/H2DCFDA-cellular ROS Assay Kit (Abcam, Cambridge, MA, USA) was used, as previously described. A total of 25,000 cells/mL of HT29 cells in DMEM were seeded in 96-well plates. Cells were washed with 1X kit buffer, and then stained with 25 μM 2′,7′-dichlorofluorescein diacetate (DCFH-DA) and incubated for 45 min. DCFH-DA was then removed, and cells were then re-washed with 1X kit buffer, after which phenol red free media was added. Cells were then treated with a GI50 drug concentration for each complex. The plates were directly scanned to measure fluorescence (relative fluorescence units (RFU)) at different time points using the Glo-Max®-Multimode microplate reader (Promega Corporation, Alexandra, VIC, Australia) at an excitation/emission of 485/535 nm. To generate the positive control (20 μM tert-butyl hydroperoxide (TBHP)), cells were washed with 1X kit buffer, and stained with DCFDA (25 μM) for 45 min; this was removed and TBHP was added in phenol red free media, and the resulting solution was scanned as described above.
# BE2-C neuroblastoma = assay: MTT growth inhibition assay, BE2-C; assay type: cell-based, human; conditions: 72 h
# H460 lung = assay: MTT growth inhibition assay, H460; assay type: cell-based, human
# U87 glioblastoma = assay: MTT growth inhibition assay, U87; assay type: cell-based, human; conditions: 72 h
# Du145 prostate = assay: MTT growth inhibition assay, Du145; assay type: cell-based, human; conditions: MTT assay, 72 h
Structure (SMILES),"GI50 (HT29 colon; Homo sapiens, HT-29) [µM]",GI50 (MIA pancreas; Homo sapiens) [µM],"GI50 (A431 skin; Homo sapiens, A-431, 72 h) [µM]","GI50 (SJ-G2 glioblastoma; Homo sapiens, SJ-G2, 72 h) [µM]","GI50 (MCF-7 breast; Homo sapiens, MCF7) [µM]","GI50 (A2780 ovarian; Homo sapiens, A2780, 72 h) [µM]","GI50 (BE2-C neuroblastoma; Homo sapiens, BE(2)-C) [µM]","GI50 (H460 lung; Homo sapiens, NCI-H460, 72 h) [µM]",GI50 (U87 glioblastoma; Homo sapiens) [µM],"GI50 (Du145 prostate; Homo sapiens, DU-145) [µM]",ROS production 24 h (HT29 colon cells) [RFU],ROS production 48 h (HT29 colon cells) [RFU],ROS production 72 h (HT29 colon cells) [RFU],GI50 ([1]; Homo sapiens) [µM],GI50 (panel of cell lines; Homo sapiens) [µM],cytotoxicity (panel of cell lines),"GI50 ([4]; Homo sapiens, MCF-10A) [µM]",ROS production relative to the control (HT29 colon cells),further results
"N[C@H]1CCCC[C@@H]1N.O=C(Cc1ccc(Cl)cc1)[O][Pt+2]1([OH])[N]2C=CC=c3ccc4c(c32)[N]1C=CC=4 [Complex 1, [Pt^IV(phen)(SS-DACH)(4-CPA)(OH)]^2+]",–,–,–,–,–,–,–,–,–,–,272 ± 9,368 ± 19,409 ± 11,–,–,–,–,–,"GI50 (HT29 colon): 0.15 ± 0.064 µM; GI50 (MIA pancreas): 0.27 ± 0.042 µM; GI50 (A431 skin; 72 h): 0.56 ± 0.073 µM; GI50 [1]: 0.29 ± 0.05 µM; GI50 (SJ-G2 glioblastoma; 72 h): 0.42 ± 0.092 µM; GI50 (MCF-7 breast): 0.86 ± 0.18 µM; GI50 (panel of cell lines): 0.406 ± 0.09 µM; T50% (approximate time at which 50% reduction occurs) ([2]; 10 mM PBS (~7.4 pH), 1H-NMR): 15 to 20 min; time at which reduction starts ([2]; PBS, 1H-NMR): 5 min; extent of reduction at 1 h (1H-NMR) ([2]; PBS, 1 h): almost entirely reduced to its platinum(II) precursor, PHENSS; extent of reduction 1 h after the final 1H-NMR experiment (1D-195Pt-NMR) ([2]; PBS, regions −2800 and 400 ppm): reduced entirely to PHENSS; also recorded: complete reduction; log kw ([3]; chromatographic lipophilicity index, extrapolated to 100% d.i.H2O): 0.75; log kw (y-intercept of log k versus [CH3CN] % plot, Figure S80) ([3]; linear fit): 0.7472; GI50 [4]: 0.29 ± 0.09 µM; GI50 (A2780 ovarian; 72 h): 0.28 ± 0.067 µM; GI50 (BE2-C neuroblastoma): 0.49 ± 0.093 µM; GI50 (H460 lung; 72 h): 0.38 ± 0.081 µM; GI50 (U87 glioblastoma): 0.74 ± 0.23 µM; GI50 (Du145 prostate): 0.14 ± 0.043 µM"
"O=C(O)Cc1ccc(Br)cc1 [Complex 4-BPA, 4-bromophenylacetic acid]",> 50,> 50,> 50,> 50,> 50,> 50,> 50,> 50,> 50,> 50,172 ± 9,198 ± 10,222 ± 13,> 50,> 50,did not demonstrate significant cytotoxicity,> 50,increase in ROS production relative to the control,–
"CC(C)(C)OO [TBHP, tert-butyl hydroperoxide]",–,–,–,–,–,–,–,–,–,–,514 ± 3,336 ± 2,332 ± 5,–,–,–,–,–,–

# Continued, in another order:
"GI50 (HT29 colon; Homo sapiens, HT-29) [µM]",GI50 (MIA pancreas; Homo sapiens) [µM],"GI50 (A431 skin; Homo sapiens, A-431, 72 h) [µM]","GI50 (SJ-G2 glioblastoma; Homo sapiens, SJ-G2, 72 h) [µM]","GI50 (MCF-7 breast; Homo sapiens, MCF7) [µM]","GI50 (A2780 ovarian; Homo sapiens, A2780, 72 h) [µM]","GI50 (BE2-C neuroblastoma; Homo sapiens, BE(2)-C) [µM]","GI50 (H460 lung; Homo sapiens, NCI-H460, 72 h) [µM]",GI50 (U87 glioblastoma; Homo sapiens) [µM],"GI50 (Du145 prostate; Homo sapiens, DU-145) [µM]",Structure (SMILES),ROS production 24 h (HT29 colon cells) [RFU],ROS production 48 h (HT29 colon cells) [RFU],ROS production 72 h (HT29 colon cells) [RFU],GI50 ([1]; Homo sapiens) [µM],GI50 (panel of cell lines; Homo sapiens) [µM],cytotoxicity (panel of cell lines),"GI50 ([4]; Homo sapiens, MCF-10A) [µM]",ROS production relative to the control (HT29 colon cells),further results
> 50,> 50,> 50,> 50,> 50,> 50,> 50,> 50,> 50,> 50,"O=C(O)Cc1ccc(Cl)cc1 [Complex 4-CPA, 4-chlorophenylacetic acid]",167 ± 13.2,207 ± 14.5,233 ± 10.4,> 50,> 50,did not demonstrate significant cytotoxicity,> 50,increase in ROS production relative to the control,–
> 50,> 50,> 50,> 50,> 50,> 50,> 50,> 50,> 50,> 50,"O=C(O)Cc1ccc(F)cc1 [Complex 4-FPA, 4-fluorophenylacetic acid]",197 ± 8,224 ± 11,236 ± 6,> 50,> 50,did not demonstrate significant cytotoxicity,> 50,increase in ROS production relative to the control,–
> 50,> 50,> 50,> 50,> 50,> 50,> 50,> 50,> 50,> 50,"O=C(O)Cc1ccc(I)cc1 [Complex 4-IPA, 4-iodophenylacetic acid]",137 ± 7,182 ± 12,206 ± 9,> 50,> 50,did not demonstrate significant cytotoxicity,> 50,increase in ROS production relative to the control,–

# Reference: PMC9611758, “Bioactive Platinum(IV) Complexes Incorporating Halogenated Phenylacetates” (Molecules, 2022)
